Where two headings read alike, the source gives them in different places.
What was measured:
PI3K-alpha = PI3K-alpha (Homo sapiens, UniProt P42336); assay: Kinase inhibition assay, P-33 labelled ATP phosphate transfer, PI3K-alpha; type: biochemical; settings: for inhibition at 0.3 µM: read-out: PI3K-alpha (% Inh at 300 nM)
Experimental: (§1) The assays determined the amount of radioactive phosphate transferred from P-33 labelled ATP to the substrate by the enzyme in the presence of various concentrations of the inhibitor test compounds. […] After this time period the cells were serum starved for 5 hours followed by application of the test compound. Test compound was added as a DMSO (dimethyl sulfoxide) solution such that the final DMSO concentration in the cell media was less than or equal to 0.2% by volume. After 30 minutes of exposure the growth factor stimulant, human IGF-1 (Pepro Tech, Inc., Rocky Hill, N.J., Cat.#100-11), was added in each well. […] A SpectraMax Plus spectrophotometric plate reader (Molecular Devices, Sunnydale, Calif.) was used to measure the optical density signal for pAKT at 450 nm (OD450 nm). The pAKT OD450 nm readings were normalized by total protein amount in the cell lysates determined by standard methods. Concentrations of test compounds required to inhibit IGF stimulated pAKT levels to 50% of maximum levels in PC3 cells (termed DM50 for decreased maximum 50%) were calculated by inputting the dose responses in the software package GraphPad Prism4 (GraphPad Software, Inc., San Diego, Calif.).

PC3 cells = assay: PC3 cell proliferation (WST, 72 hours); type: cell-based; settings: Homo sapiens, read-out: PC3 cell proliferation(IC50 μM)
Experimental: The PC3 cell proliferation data in column 26 of Table 5 was obtained as follows: PC3 cells were obtained from the American Type Culture Collection (ATCC, Manassas, Va., Cat.#CRL-1435). Two thousand cells from the prostate cancer line PC3 were placed in 50 μL of complete RPMI 1640 media (Invitrogen, Carlsbad, Calif., Cat.#22400-105) with 10% fetal bovine serum, (Invitrogen, Carlsbad, Calif., Cat.#10438-026) into each well of 96-well cell culture plates in a hexaplicate sampling pattern. A 50 μL aliquot of test compound (prepared from stock test compounds in DMSO diluted into media) was added to the appropriate well such that the final concentrations of test compound were 200, 40, 8, 1.6, 0.32, 0.064, 0.0128, 0.00256, and 0 μM and the final DMSO concentration was less than or equal to 0.2% . The plates were incubated for 72 hours 37° C. in an atmosphere of 5% CO2. At the end of this time a 10 μL aliquot of WST solution (Roche Applied Science, Mannheim, Germany) was added into each of the wells. Cells were exposed to the WST solution for 4 hours. A SpectraMax Plus spectrophotometric plate reader (Molecular Devices, Sunnydale, Calif.) was then used to measure the optical density at 450 nm (OD450 nm). Sigmoidal curves were drawn for the dose responses and IC50 values were calculated using the software package GraphPad Prism4 (GraphPad Software, Inc., San Diego, Calif.).

DNA-PK = DNA-PK (Homo sapiens, UniProt P78527); assay: Kinase inhibition assay, P-33 labelled ATP phosphate transfer, DNA-PK; type: biochemical; settings: for inhibition at 0.3 µM: read-out: DNA-PK(% Inh at 300 nM)
Experimental: as §1

PI3K-gamma = PI3K-gamma (Homo sapiens, UniProt P48736); assay: Kinase inhibition assay, P-33 labelled ATP phosphate transfer, PI3K-gamma; type: biochemical; settings: for inhibition at 10 µM: read-out: PI3K-gamma(% Inh at 10 μM); for inhibition at 0.3 µM: read-out: PI3K-gamma(% Inh at 300 nM)
Experimental: as §1

PLK-1 = PLK-1 (Homo sapiens, UniProt P53350); assay: Kinase inhibition assay, P-33 labelled ATP phosphate transfer, PLK-1; type: biochemical; settings: for inhibition at 10 µM: read-out: PLK-1(% Inh at 10 μM); for inhibition at 0.3 µM: read-out: PLK-1(% Inh at 300 nM)
Experimental: as §1

PI3K-beta = PI3K-beta (Homo sapiens, UniProt P42338); assay: Kinase inhibition assay, P-33 labelled ATP phosphate transfer, PI3K-beta; type: biochemical; settings: for inhibition at 10 µM: read-out: PI3K-beta(% Inh at 10 μM); for inhibition at 0.3 µM: read-out: PI3K-beta(% Inh at 300 nM)
Experimental: as §1

PI3K-delta = PI3K-delta (Homo sapiens, UniProt O00329); assay: Kinase inhibition assay, P-33 labelled ATP phosphate transfer, PI3K-delta; type: biochemical; settings: for inhibition at 10 µM: read-out: PI3K-delta(% Inh at 10 μM); for inhibition at 0.3 µM: read-out: PI3K-delta(% Inh at 300 nM)
Experimental: as §1

PIM-1 = PIM-1 (Homo sapiens, UniProt P11309); assay: Kinase inhibition assay, P-33 labelled ATP phosphate transfer, PIM-1; type: biochemical; settings: for inhibition at 10 µM: read-out: PIM-1(% Inh at 10 μM); for inhibition at 0.3 µM: read-out: PIM-1(% Inh at 300 nM)
Experimental: as §1

mTOR = mTOR (Homo sapiens, UniProt P42345); assay: Kinase inhibition assay, P-33 labelled ATP phosphate transfer, mTOR; type: biochemical; settings: for inhibition at 10 µM: read-out: mTOR(% Inh at 10 μM); for inhibition at 0.3 µM: read-out: mTOR(% Inh at 300 nM)
Experimental: as §1

PI-3 kinases = settings: cited from earlier work

PLK-1, sequence (P53350 whole entry, species assumed): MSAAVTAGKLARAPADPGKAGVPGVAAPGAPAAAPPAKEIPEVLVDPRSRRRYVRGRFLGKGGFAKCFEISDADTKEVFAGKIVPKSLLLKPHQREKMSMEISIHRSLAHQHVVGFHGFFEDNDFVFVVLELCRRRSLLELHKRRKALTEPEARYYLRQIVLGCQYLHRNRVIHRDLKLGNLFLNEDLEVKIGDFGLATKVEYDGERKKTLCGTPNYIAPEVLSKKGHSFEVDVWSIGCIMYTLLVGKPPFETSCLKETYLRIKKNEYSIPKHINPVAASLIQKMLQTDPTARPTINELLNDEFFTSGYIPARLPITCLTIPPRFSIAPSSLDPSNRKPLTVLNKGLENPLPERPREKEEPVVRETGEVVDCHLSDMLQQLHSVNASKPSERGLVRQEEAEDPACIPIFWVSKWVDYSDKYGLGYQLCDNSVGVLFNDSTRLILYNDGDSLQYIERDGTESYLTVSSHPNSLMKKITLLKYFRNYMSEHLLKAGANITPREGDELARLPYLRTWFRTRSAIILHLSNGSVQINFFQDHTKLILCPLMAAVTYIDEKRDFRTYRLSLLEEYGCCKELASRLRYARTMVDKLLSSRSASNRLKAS
PI3K-beta, sequence (P42338 whole entry, species assumed): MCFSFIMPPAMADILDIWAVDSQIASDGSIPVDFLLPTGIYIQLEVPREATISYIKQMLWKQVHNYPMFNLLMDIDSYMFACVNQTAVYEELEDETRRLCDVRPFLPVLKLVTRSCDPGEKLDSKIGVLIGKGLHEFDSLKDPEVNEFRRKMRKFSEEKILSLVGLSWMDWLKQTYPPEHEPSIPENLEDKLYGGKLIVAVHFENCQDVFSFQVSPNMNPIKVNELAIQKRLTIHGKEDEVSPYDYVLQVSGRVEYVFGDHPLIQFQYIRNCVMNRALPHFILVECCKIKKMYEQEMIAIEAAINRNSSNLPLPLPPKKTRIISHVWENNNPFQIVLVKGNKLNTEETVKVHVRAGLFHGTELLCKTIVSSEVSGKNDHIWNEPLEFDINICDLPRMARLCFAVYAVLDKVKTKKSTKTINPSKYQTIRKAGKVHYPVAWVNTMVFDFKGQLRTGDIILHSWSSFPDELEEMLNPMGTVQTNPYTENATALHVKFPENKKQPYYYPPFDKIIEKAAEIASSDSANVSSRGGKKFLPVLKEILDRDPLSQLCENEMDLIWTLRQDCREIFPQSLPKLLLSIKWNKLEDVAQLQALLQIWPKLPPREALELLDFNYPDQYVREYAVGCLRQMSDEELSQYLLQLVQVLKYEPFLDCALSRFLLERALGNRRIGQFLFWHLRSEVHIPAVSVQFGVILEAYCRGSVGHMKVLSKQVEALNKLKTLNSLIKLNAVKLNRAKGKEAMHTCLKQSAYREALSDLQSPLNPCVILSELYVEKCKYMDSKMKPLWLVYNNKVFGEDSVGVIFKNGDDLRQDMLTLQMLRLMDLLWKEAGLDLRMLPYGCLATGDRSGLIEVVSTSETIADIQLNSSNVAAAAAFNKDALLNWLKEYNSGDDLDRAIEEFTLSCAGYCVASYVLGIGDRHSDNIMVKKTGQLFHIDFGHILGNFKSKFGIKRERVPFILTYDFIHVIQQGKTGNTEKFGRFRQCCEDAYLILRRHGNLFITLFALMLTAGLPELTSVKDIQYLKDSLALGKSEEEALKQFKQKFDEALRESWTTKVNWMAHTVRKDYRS
PI3K-beta, sequence (P27986 whole entry partner, species assumed): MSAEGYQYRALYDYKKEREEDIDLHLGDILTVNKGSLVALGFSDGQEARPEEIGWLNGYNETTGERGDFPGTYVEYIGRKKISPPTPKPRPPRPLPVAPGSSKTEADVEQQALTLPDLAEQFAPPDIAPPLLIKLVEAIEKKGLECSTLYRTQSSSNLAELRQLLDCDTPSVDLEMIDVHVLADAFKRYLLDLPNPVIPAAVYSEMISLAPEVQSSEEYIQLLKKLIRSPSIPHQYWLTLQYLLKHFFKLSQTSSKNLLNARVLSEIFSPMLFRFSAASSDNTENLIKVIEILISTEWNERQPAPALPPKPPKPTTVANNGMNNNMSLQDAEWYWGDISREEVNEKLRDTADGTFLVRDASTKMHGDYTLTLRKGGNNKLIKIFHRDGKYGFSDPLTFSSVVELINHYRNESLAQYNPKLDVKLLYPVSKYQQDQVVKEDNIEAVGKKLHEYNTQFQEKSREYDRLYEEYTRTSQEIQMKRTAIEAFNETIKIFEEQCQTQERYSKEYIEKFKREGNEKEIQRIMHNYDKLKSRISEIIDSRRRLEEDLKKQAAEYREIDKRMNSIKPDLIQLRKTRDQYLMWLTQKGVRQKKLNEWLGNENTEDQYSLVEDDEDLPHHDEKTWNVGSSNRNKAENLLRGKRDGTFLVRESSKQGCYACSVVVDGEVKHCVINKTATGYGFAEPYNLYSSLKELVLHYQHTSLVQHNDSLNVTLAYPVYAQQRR
PI3K-gamma, sequence (P48736 whole entry, species assumed): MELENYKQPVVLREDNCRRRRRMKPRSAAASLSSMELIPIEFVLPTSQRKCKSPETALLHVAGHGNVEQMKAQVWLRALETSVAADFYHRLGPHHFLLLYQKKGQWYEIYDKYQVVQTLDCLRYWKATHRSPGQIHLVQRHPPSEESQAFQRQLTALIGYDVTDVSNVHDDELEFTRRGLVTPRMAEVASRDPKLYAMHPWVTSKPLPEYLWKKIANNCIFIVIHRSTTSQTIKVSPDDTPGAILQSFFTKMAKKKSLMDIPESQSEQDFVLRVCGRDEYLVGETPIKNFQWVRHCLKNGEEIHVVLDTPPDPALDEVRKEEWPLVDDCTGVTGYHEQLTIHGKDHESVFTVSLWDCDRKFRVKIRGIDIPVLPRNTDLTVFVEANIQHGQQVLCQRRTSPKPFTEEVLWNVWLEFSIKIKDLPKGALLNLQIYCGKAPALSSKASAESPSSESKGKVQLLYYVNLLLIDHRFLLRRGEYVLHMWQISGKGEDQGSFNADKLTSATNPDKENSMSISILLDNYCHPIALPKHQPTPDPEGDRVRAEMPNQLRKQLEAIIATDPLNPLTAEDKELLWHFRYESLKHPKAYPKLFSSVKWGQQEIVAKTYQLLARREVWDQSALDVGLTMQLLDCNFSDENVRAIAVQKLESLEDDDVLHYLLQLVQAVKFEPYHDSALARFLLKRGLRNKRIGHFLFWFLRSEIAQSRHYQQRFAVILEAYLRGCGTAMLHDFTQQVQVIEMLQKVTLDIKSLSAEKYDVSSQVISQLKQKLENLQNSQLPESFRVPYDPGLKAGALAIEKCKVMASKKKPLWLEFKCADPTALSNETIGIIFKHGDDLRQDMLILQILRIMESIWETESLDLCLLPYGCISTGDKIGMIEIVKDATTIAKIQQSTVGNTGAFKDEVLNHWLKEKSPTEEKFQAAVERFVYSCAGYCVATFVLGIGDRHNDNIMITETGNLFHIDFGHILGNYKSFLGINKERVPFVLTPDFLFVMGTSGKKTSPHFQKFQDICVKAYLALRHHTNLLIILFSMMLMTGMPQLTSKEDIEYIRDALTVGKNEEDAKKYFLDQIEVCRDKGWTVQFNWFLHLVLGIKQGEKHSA
PI3K-alpha, sequence (P42336 whole entry, species assumed): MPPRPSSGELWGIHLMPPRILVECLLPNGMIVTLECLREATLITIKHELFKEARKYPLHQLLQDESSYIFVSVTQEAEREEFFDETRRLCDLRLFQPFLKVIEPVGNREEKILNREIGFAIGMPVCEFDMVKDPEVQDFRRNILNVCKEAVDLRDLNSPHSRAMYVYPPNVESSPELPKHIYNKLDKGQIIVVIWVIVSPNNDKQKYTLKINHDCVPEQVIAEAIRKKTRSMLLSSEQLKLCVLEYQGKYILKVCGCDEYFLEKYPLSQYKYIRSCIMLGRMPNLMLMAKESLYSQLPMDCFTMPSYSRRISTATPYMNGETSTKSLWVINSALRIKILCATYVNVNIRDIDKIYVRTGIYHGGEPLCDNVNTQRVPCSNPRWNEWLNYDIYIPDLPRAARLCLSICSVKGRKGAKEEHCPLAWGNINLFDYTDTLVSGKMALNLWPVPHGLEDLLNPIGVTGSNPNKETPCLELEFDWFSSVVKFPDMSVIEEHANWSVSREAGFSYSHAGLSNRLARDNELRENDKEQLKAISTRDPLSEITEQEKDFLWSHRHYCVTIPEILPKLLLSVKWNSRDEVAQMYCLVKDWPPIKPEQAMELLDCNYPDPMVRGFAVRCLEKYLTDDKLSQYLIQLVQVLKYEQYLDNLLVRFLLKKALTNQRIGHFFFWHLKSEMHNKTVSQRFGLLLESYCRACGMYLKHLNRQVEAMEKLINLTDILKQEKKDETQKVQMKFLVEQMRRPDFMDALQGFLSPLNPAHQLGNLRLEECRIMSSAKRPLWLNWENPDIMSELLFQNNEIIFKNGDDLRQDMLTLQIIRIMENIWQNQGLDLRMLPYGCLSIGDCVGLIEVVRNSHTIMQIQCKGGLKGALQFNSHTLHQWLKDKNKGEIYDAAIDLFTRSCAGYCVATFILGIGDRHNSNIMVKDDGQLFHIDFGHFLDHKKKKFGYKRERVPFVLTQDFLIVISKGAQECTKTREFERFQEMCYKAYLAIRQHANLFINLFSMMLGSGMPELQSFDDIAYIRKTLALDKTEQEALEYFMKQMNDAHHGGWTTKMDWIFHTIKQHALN
PI3K-alpha, sequence (P27986 whole entry partner, species assumed): as the sequence (P27986 whole entry partner, species assumed) above
PIM-1, sequence (P11309 whole entry, species assumed): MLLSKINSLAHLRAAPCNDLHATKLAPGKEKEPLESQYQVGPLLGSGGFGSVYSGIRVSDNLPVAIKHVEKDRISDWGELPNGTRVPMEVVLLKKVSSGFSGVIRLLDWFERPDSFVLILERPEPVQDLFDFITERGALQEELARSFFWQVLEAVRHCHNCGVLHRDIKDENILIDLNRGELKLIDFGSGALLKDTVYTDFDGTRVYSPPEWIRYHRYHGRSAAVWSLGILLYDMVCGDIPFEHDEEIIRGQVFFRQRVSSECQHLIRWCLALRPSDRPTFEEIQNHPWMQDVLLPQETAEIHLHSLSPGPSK

Row | SMILES | IC50 (PC3 cells; PC-3, PC3 cells, 72 hours, WST) | inhibition at 0.3 µM (PI3K-alpha) | inhibition at 10 µM (PI3K-delta) | inhibition at 0.3 µM (PLK-1) | inhibition at 0.3 µM (PI3K-delta) | inhibition at 0.3 µM (mTOR) | further results
1 | O=c1nc(N2CCOCC2)[nH]c2c(-c3ccccc3)csc12 [Compound 5, 2-morpholino-7-phenylthieno[3,2-d]pyrimidin-4(1H)-one] | 246 µM | – | – | – | – | – | inhibition at 10 µM (PI3K-alpha; read-out: PI3K-alpha(% Inh at 10 μM)): 12%
2 | O=c1nc(N2CCOCC2)[nH]c2c1cnn2C1CCCCC1 [Compound 8, 1-cyclohexyl-6-morpholino-1H-pyrazolo[3,4-d]pyrimidin-4(7H)-one] | – | 2% | 18% | – | – | – | IC50 (DNA-PK): 24 µM; inhibition at 10 µM (PI3K-gamma): 4.8%; inhibition at 10 µM (PLK-1): 3.4%; inhibition at 10 µM (PI3K-beta): 9.2%; inhibition at 10 µM (PIM-1): 3.2%; inhibition at 10 µM (mTOR): 11%
3 | Cc1nc2c(=O)nc(N3CCOCC3)[nH]c2n1-c1ccccc1 [Compound 11, 8-methyl-2-morpholino-9-phenyl-3H-purin-6(9H)-one] | – | 2.6% | – | 0% | 32% | 0% | inhibition at 0.3 µM (DNA-PK): 0%; inhibition at 0.3 µM (PI3K-gamma): 0%; inhibition at 0.3 µM (PI3K-beta): 0%; inhibition at 0.3 µM (PIM-1): 0%
4 | O=c1nc(N2CCOCC2)oc2c(-c3ccc4c(c3)OCCO4)csc12 [Compound 12] | 4.7 µM | 53% | – | 0% | 72% | 0% | –
5 | COc1cccc(-c2csc3c(=O)nc(N4CCOCC4)oc23)c1 [Compound 13] | – | 6.8% | – | 0% | 0% | 0% | IC50 (PC3 cells; PC-3, 72 h): 94 µM
6 | COc1ccc(-c2csc3c(=O)nc(N4CCOCC4)oc23)cc1 [Compound 14] | – | 19% | – | 0% | 27% | 0% | –
7 | CN(C)c1ccc(-c2csc3c(=O)nc(N4CCOCC4)oc23)cc1 [Compound 15] | 20 µM | 11% | – | 0% | 33% | 0% | –
8 | O=C(NCCN1CCOCC1)c1cccc(-c2csc3c(=O)nc(N4CCOCC4)oc23)c1 [Compound 16] | 31 µM | 16% | – | 0% | 17% | 0% | –
9 | Nc1ccc(-c2csc3c(=O)nc(N4CCOCC4)oc23)cc1 [Compound 17] | 108 µM | 22% | – | 0% | 32% | 0% | –
10 | O=c1nc(N2CCOCC2)oc2c(-c3cccnc3)csc12 [Compound 18] | – | 0% | – | 0% | 0% | 0% | –
11 | O=c1nc(N2CCOCC2)oc2c(-c3ccoc3)csc12 [Compound 19] | – | 15% | – | 0% | 0% | 3% | –
12 | COc1ccc(C#Cc2csc3c(=O)nc(N4CCOCC4)oc23)cc1 [Compound 20] | – | 0% | – | 0% | 0% | 0% | –
13 | O=c1nc(N2CCOCC2)[nH]c2c1cnn2-c1ccccc1 [Compound 22] | 263 µM | 14% | 20% | – | – | 42% | inhibition at 10 µM (PI3K-gamma): 8%; inhibition at 10 µM (PIM-1): 45%
14 | O=c1cc(N2CCOCC2)oc2c(-c3ccccc3)cccc12 [LY294002, 2-(4-morpholinyl)-8-phenyl-4H-1-benzopyran-4-one] | – | – | – | – | – | – | IC50 (PI-3 kinases; C. J. Vlahos et al. 1994): 1.4 µM
15 | O=c1cc(N2CCNCC2)oc2c(-c3ccccc3)cccc12 [LY303511] | – | – | – | – | – | – | PI3K inhibition activity (PI-3 kinases; C. Vlahos et al. 1994): lose all PI3K inhibition activity

The next lines start with results.

Row | IC50 (PC3 cells; PC-3, PC3 cells, 72 hours, WST) | inhibition at 0.3 µM (PI3K-alpha) | inhibition at 10 µM (PI3K-delta) | inhibition at 0.3 µM (PLK-1) | inhibition at 0.3 µM (PI3K-delta) | inhibition at 0.3 µM (mTOR) | SMILES | further results
16 | – | 6.6% | 0% | – | – | – | O=c1nc(N2CCOCC2)[nH]c2c1cnn2Cc1ccccc1 [Compound 23] | IC50 (DNA-PK): 24 µM; inhibition at 10 µM (PI3K-gamma): 15%; inhibition at 10 µM (PLK-1): 4.9%; inhibition at 10 µM (PI3K-beta): 14%; inhibition at 10 µM (PIM-1): 2.1%; inhibition at 10 µM (mTOR): 0%
17 | 1.4 µM | 6.6% | 7.2% | – | – | – | CCOC(=O)Cn1ncc2c(=O)nc(N3CCOCC3)[nH]c21 [Compound 24] | IC50 (DNA-PK): 24 µM; inhibition at 10 µM (PI3K-gamma): 14%; inhibition at 10 µM (PLK-1): 7.5%; inhibition at 10 µM (PI3K-beta): 22%; inhibition at 10 µM (PIM-1): 0.9%; inhibition at 10 µM (mTOR): 0%
18 | – | 6.6% | 10% | – | – | – | O=c1nc(N2CCOCC2)[nH]c2c1cnn2-c1ccccn1 [Compound 25] | IC50 (DNA-PK): 24 µM; inhibition at 10 µM (PI3K-gamma): 35%; inhibition at 10 µM (PLK-1): 2.6%; inhibition at 10 µM (PI3K-beta): 4.7%; inhibition at 10 µM (PIM-1): 9.4%; inhibition at 10 µM (mTOR): 0%
19 | – | 9% | 26% | – | – | – | O=c1nc(N2CCOCC2)[nH]c2c1cnn2CCO [Compound 26] | IC50 (DNA-PK): 24 µM; inhibition at 10 µM (PI3K-gamma): 0.6%; inhibition at 10 µM (PLK-1): 3.3%; inhibition at 10 µM (PI3K-beta): 14%; inhibition at 10 µM (PIM-1): 1.5%; inhibition at 10 µM (mTOR): 0.5%
20 | 149 µM | 30% | 50% | – | – | – | O=c1nc(N2CCOCC2)[nH]c2c1cnn2-c1ccc2c(c1)OCCO2 [Compound 27] | IC50 (DNA-PK): 24 µM; inhibition at 10 µM (PI3K-gamma): 48%; inhibition at 10 µM (PI3K-beta): 12%; IC50 (PIM-1): 1 µM; inhibition at 10 µM (mTOR): 4.4%
21 | – | 6.9% | 0% | – | – | – | O=c1nc(N2CCOCC2)[nH]c2c1cnn2-c1ccc(Cl)cc1 [Compound 28] | –
22 | – | 7% | – | 0% | 0% | 0% | Cc1nc2c(=O)nc(N3CCOCC3)[nH]c2n1Cc1ccccc1 [Compound 29] | inhibition at 0.3 µM (DNA-PK): 0%; inhibition at 0.3 µM (PI3K-gamma): 0%; inhibition at 0.3 µM (PI3K-beta): 0%; inhibition at 0.3 µM (PIM-1): 0%
23 | – | 4.7% | – | 0% | 32% | 0% | Cc1nc2c(=O)nc(N3CCOCC3)[nH]c2n1-c1ccc(F)cc1 [Compound 30] | inhibition at 0.3 µM (DNA-PK): 0%; inhibition at 0.3 µM (PI3K-gamma): 3%; inhibition at 0.3 µM (PI3K-beta): 14%; inhibition at 0.3 µM (PIM-1): 0%
24 | – | 7.5% | – | 0% | 8.7% | 0% | Cc1nc2c(=O)nc(N3CCOCC3)[nH]c2n1-c1ccc2[nH]ccc2c1 [Compound 31] | inhibition at 0.3 µM (DNA-PK): 0%; inhibition at 0.3 µM (PI3K-gamma): 7.5%; inhibition at 0.3 µM (PI3K-beta): 2.5%; inhibition at 0.3 µM (PIM-1): 0%
25 | – | 0% | – | 0% | 15% | 0% | Cc1ccc(-n2c(C)nc3c(=O)nc(N4CCOCC4)[nH]c32)cc1 [Compound 32] | inhibition at 0.3 µM (DNA-PK): 0%; inhibition at 0.3 µM (PI3K-gamma): 1%; inhibition at 0.3 µM (PI3K-beta): 0%; inhibition at 0.3 µM (PIM-1): 0%

Reference: US10174032B2, “Heterocyclic compound classes for signaling modulation” (SignalRx Pharmaceuticals, Inc., priority 2014, dated 2019)
